In patent EP1547597A2, “Use of adatanserin for the treatment of neurodegenerative conditions” (Wyeth, priority 1999, dated 2001):

Tested on: rat hippocampal slices
Assay: Reduction of azide-induced ischemic efflux of glutamate in rat hippocampal slices
Type: cell-based
Conditions: versus control, statistically significant, read-out: reduction of glutamate release (azide-induced ischemic efflux of glutamate)
Method: Adatanserin was evaluated for its ability to reduce the azide-induced ischemic efflux of glutamate in rat hippocampal slices. Three Krebs buffers were used in the experiments. Normal Krebs buffer consisted of a solution containing the following: (122 mM NaCl, 3 mM KCl, 24 mM NaHCO3, 10 mM glucose, 0.315 mM K2HPO4, 1.2 mM MgSO4, 4 mM CaCl2). Aglycemic Krebs buffer was similar to the normal buffer with the exception that glucose was not added. Ischemic Krebs buffer was the aglycemic solution which contained varying concentrations of sodium azide (0 - 30 mM).
Rat hippocampi were dissected on a cold platform and suspended in ice cold oxygenated normal Krebs buffer. The tissue was cross-chopped at 350 microns on a Mcllwain tissue chopper, then resuspended and washed three times with ice cold normal Krebs buffer. […] Amino acid concentrations were analyzed with reverse phase HPLC on a catacholamine column (Keystone Scinetific, 150 x 3 mm) employing an 0.05 M acetate/methanol gradient. […] Amino acids were visualized by derivatization with naphthalene-2,3-dicarboxaldehyde and fluorimetric detection (Dawson, L. A. et al., Improved Temporal Resolution of Microdialysis Measurement of Glutamate and Aspartate Using Capillary Electrophoresis with Laser Induced Fluorescence Detection. J. Chromatogr. B 1997, 694, 1204-1212). […]

## O=C(NCCN1CCN(c2ncccn2)CC1)C12CC3CC(CC(C3)C1)C2 [adatanserin, N-[2-[4-(2-pyrimidinyl)-1-piperazinyl]ethyl]tricyclo[3.3.1.13,7]decane-1-carboxamide]
Adatanserin 100 nM
  inhibition at 0.1 µM: 72%
Adatanserin 1000 nM (1 µM)
  inhibition at 1 µM: 71%
